Assays:
[1] = test system: 1321N1 astrocyte cell line; assay: 1321N1 oxidative stress assay (serum withdrawal, DCF); settings: for Emax / IC50: Homo sapiens; for Emax: 1321-N1, 24 h, read-out: 1321N1 oxidative stress assay Max reduction; for IC50: 1321-N1, read-out: 1321N1 oxidative stress assay IC50; for 1321N1 oxidative stress assay Toxic dose: minimum dose at which toxicity was observed
Procedure: (§1) Media were then replaced with serum-free, phenol-free media for 5 h.

C6 astrocyte cell line = assay: C6 oxidative stress assay (serum withdrawal, DCF); settings: for Emax / IC50: Rattus norvegicus, Astrocyte; for Emax: 24 h, read-out: C6 oxidative stress assay Max reduction; for IC50: read-out: C6 oxidative stress assay IC50; for C6 oxidative stress assay Toxic dose: minimum dose at which toxicity was observed
Procedure: as §1

NSC34 cells = assay: NSC34 oxidative stress assay (serum withdrawal, DCF); settings: for Emax: Mus musculus, NSC-34, 24 h, read-out: NSC34 oxidative stress assay Max reduction; for NSC34 oxidative stress assay Toxic dose: minimum dose at which toxicity was observed
Procedure: as §1

Nrf2-ARE pathway = assay: ARE reporter assay in CHO 4xARE-TK-GFP cells (Spectrum library hits); settings: for Toxic dose: lowest dose at which a reduction in GFP fluorescence was observed; for Fold GFP induction: average fold over baseline at the maximal response, CHO cells, 24 h; for Cmax: read-out: Cmax (concentration inducing a maximal response), CHO-4xARE-TK, 24 hours, serum free medium
Procedure: The Z′ score was calculated as follows Z′=1−(3SD^++3SD^−)/(Ave^+–Ave^−) where SD^+ = standard deviation of positive control wells; SD^− = standard deviation of negative control wells; Ave^+ = average fluorescence reading of positive control wells; Ave^− = average fluorescence reading of negative control wells.
Media was removed by hand and replaced (1 compound/well) with the Spectrum library diluted to 10 μM in 0.1% DMSO using a Q-bot liquid handling system (Genetix, New Milton, UK). […] The TK-GFP CHO ARE cell line was screened twice in a single point assay and the control TK-GFP CHO cell line was screened once to eliminate false positives.
The compounds were applied in triplicate to confluent cells in 96 well plates in serum free medium for 24 hours and the induction of GFP measured in a fluorescence plate reader.
In order to screen the Spectrum collection of 2000 molecules the reporter assay was optimised in […]. To assess the suitability of the assay for library screening, a Z’ score calculation was performed by treating alternate wells with vehicle (0.1% DMSO) and 10 µM Ebselen as a positive control (see calculation in Methods). […] The library was subsequently screened at a single point concentration of 10µM for every compound. Drug library dilutions and plating were performed with a Q-BOT liquid handling system and both the 4xARE-TK-GFP reporter cell line and TK-GFP control cell line were tested for their response to the compounds. Hits were identified as having data points more than three standard deviations above the background level, which was the average value of 24 wells treated with vehicle (0.1% DMSO) only. Hit compounds were checked to see if they generated a response in the control cell line, for example by non-specific activation of transcription or autofluorescence. […] The library screen was repeated once in the 4xARE –TK-CHO cell line and compounds classed as hits in both screens were taken forward for further assessment.

CCc1cccc(CC)c1N(COC)C(=O)CCl [Alachlor]
Emax [1]: 83% | IC50 [1]: 1.97 µM | 1321N1 oxidative stress assay Toxic dose [1]: none | Emax (C6 astrocyte cell line): 62% | IC50 (C6 astrocyte cell line): 6.22 µM | Emax (NSC34 cells): 0% | EC50 (Nrf2-ARE pathway; Cricetulus griseus): 3.29 µM

COc1cc(O)cc(OC)c1OC [Antiarol]
Emax [1]: 35% | 1321N1 oxidative stress assay Toxic dose [1]: none | Emax (C6 astrocyte cell line): 23% | IC50 (C6 astrocyte cell line): 3.05 µM | C6 oxidative stress assay Toxic dose (C6 astrocyte cell line): 10 µM | Emax (NSC34 cells): -50% | NSC34 oxidative stress assay Toxic dose (NSC34 cells): 10 µM | Toxic dose (Nrf2-ARE pathway): 100 µM

S=C=NCc1ccccc1 [Benzyl isothiocyanate]
Emax [1]: 8% | 1321N1 oxidative stress assay Toxic dose [1]: none | Emax (C6 astrocyte cell line): 27% | IC50 (C6 astrocyte cell line): 3.47 µM | C6 oxidative stress assay Toxic dose (C6 astrocyte cell line): none | Emax (NSC34 cells): -28% | NSC34 oxidative stress assay Toxic dose (NSC34 cells): none | EC50 (Nrf2-ARE pathway; Cricetulus griseus): 24 µM | Toxic dose (Nrf2-ARE pathway): None

ClC1=C(Cl)C2(Cl)C3C(Cl)C(Cl)CC3C1(Cl)C2(Cl)Cl (stereo not shown) [Chlordane]
Emax [1]: 68% | 1321N1 oxidative stress assay Toxic dose [1]: none | Emax (C6 astrocyte cell line): 20% | IC50 (C6 astrocyte cell line): 3.57 µM | C6 oxidative stress assay Toxic dose (C6 astrocyte cell line): none | Emax (NSC34 cells): 0% | NSC34 oxidative stress assay Toxic dose (NSC34 cells): 3 µM | EC50 (Nrf2-ARE pathway; Cricetulus griseus): 9.18 µM | Fold GFP induction (Nrf2-ARE pathway): 1.56 fold | Toxic dose (Nrf2-ARE pathway): 100 µM

CC1=C2C(=CO[C@H](C)[C@H]2C)C(O)=C(C(=O)O)C1=O [Citrinin]
Emax [1]: 28% | IC50 [1]: 0.338 µM | 1321N1 oxidative stress assay Toxic dose [1]: none | Emax (C6 astrocyte cell line): 23% | IC50 (C6 astrocyte cell line): 20 µM | C6 oxidative stress assay Toxic dose (C6 astrocyte cell line): none | Emax (NSC34 cells): 0% | NSC34 oxidative stress assay Toxic dose (NSC34 cells): none | EC50 (Nrf2-ARE pathway; Cricetulus griseus): 4.1 µM | Fold GFP induction (Nrf2-ARE pathway): 3.26 fold | Toxic dose (Nrf2-ARE pathway): 30 µM

C=CC(C1=CC(=O)C=CC1=O)c1ccccc1 (stereo not shown) [Dalbergione]
Emax [1]: 38% | IC50 [1]: 64 µM | 1321N1 oxidative stress assay Toxic dose [1]: None | Emax (C6 astrocyte cell line): 40% | IC50 (C6 astrocyte cell line): 46 µM | C6 oxidative stress assay Toxic dose (C6 astrocyte cell line): None | Emax (NSC34 cells): 0% | NSC34 oxidative stress assay Toxic dose (NSC34 cells): None | EC50 (Nrf2-ARE pathway; Cricetulus griseus): 2.47 µM | Toxic dose (Nrf2-ARE pathway): 30 µM

CC1(C)C(=O)C=C[C@]2(C)[C@H]3CC[C@@]4(C)[C@H](c5ccoc5)OC(=O)[C@H]5O[C@]54[C@]3(C)[C@H](O)C[C@@H]12 [Deacetylgedunin]
Emax [1]: 28% | IC50 [1]: 2.37 µM | 1321N1 oxidative stress assay Toxic dose [1]: 10 µM | Emax (C6 astrocyte cell line): 70% | IC50 (C6 astrocyte cell line): 5.36 µM | C6 oxidative stress assay Toxic dose (C6 astrocyte cell line): None | Emax (NSC34 cells): 0% | NSC34 oxidative stress assay Toxic dose (NSC34 cells): None | EC50 (Nrf2-ARE pathway; Cricetulus griseus): 3.5 µM | Fold GFP induction (Nrf2-ARE pathway): 3.05 fold | Toxic dose (Nrf2-ARE pathway): 30 µM

CC1(C)C2CC(=O)O[C@@]3(C)C4=CC(=O)O[C@@H](c5ccoc5)[C@]4(C)CCC3[C@@]2(C)C=C[C@H]1O (stereo partly shown) [Deoxyandirobin lactone]
Emax [1]: 65% | IC50 [1]: 1.64 µM | 1321N1 oxidative stress assay Toxic dose [1]: None | Emax (C6 astrocyte cell line): 38% | IC50 (C6 astrocyte cell line): 2.87 µM | C6 oxidative stress assay Toxic dose (C6 astrocyte cell line): None | Emax (NSC34 cells): 0% | NSC34 oxidative stress assay Toxic dose (NSC34 cells): None | EC50 (Nrf2-ARE pathway; Cricetulus griseus): 11.1 µM | Toxic dose (Nrf2-ARE pathway): 100 µM

CC(=O)O[C@@H]1CC2C(C)(C)C=CC(=O)[C@]2(C)C2CC[C@@]3(C)[C@H](c4ccoc4)OC(=O)C4OC43[C@@]21C (stereo partly shown) [Isogedunin]
1321N1 oxidative stress assay Max reduction ([1]; maximum % inhibition of DCF signal): 10% | 1321N1 oxidative stress assay Toxic dose [1]: None | NSC34 oxidative stress assay Max reduction (NSC34 cells; maximum % inhibition of DCF signal, negative = prooxidant): 0% | NSC34 oxidative stress assay Toxic dose (NSC34 cells): 1 µM | EC50 (Nrf2-ARE pathway; CHO ARE reporter, 7-point concentration response): > 100 µM | Fold GFP induction (Nrf2-ARE pathway): 3.11 fold | Toxic dose (Nrf2-ARE pathway): None

CC(C)(C)c1cc(O)ccc1O [tBHQ, tert-butyl hydroquinone, reference compound]
Cmax (Nrf2-ARE pathway): 10 µM

epigallocatechin-3-gallate [EGCG, reference compound]
Cmax (Nrf2-ARE pathway): 100 µM

Source: article PMC3684770 (Free Radical Biology & Medicine, 2013)
